Results reported in US20200017467A1, “NOVEL TRIAZOLE DERIVATIVES” (BAYER CROPSCIENCE AKTIENGESELLSCHAFT, priority 2017, published 2020).

Tests used:
Septoria tritici [1] = assay: In vivo preventive test on Septoria tritici (leaf spot on wheat); conditions: Zymoseptoria tritici, 576 h, 500 ppm of active ingredient, preventive spray, evaluated 24 days after inoculation, read-out: efficacy
Protocol: Example B: In Vivo Preventive Test on Septoria tritici (Leaf Spot on Wheat) [table] The active ingredients were made soluble and homogenized in a mixture of dimethyl sulfoxide/acetone//Tween® 80 and then diluted in water to the desired concentration. Young plants of wheat were treated by spraying the active ingredient prepared as described above. Control plants were treated only with an aqueous solution of acetone/dimethyl sulfoxide/Tween® 80. After 24 hours, the plants were contaminated by spraying the leaves with an aqueous suspension of Septoria tritici spores. The contaminated wheat plants were incubated for 72 hours at 18° C. and at 100% relative humidity and then for 21 days at 20° C. and at 90% relative humidity. The test was evaluated 24 days after the inoculation. 0% means an efficacy which corresponds to that of the control plants while an efficacy of 100% means that no disease was observed.

Sphaerotheca fuliginea = assay: In vivo preventive test on Sphaerotheca fuliginea (powdery mildew on cucurbits); conditions: Podosphaera fuliginea, 360 h; 500 ppm of active ingredient; gherkin, preventive spray, evaluated 15 days after inoculation; read-out: efficacy
Protocol: Example C: In Vivo Preventive Test on Sphaerotheca fuliginea (Powdery Mildew on Cucurbits) [table] The active ingredients were made soluble and homogenized in a mixture of dimethyl sulfoxide/acetone//Tween® 80 and then diluted in water to the desired concentration. Young plants of gherkin were treated by spraying the active ingredient prepared as described above. Control plants were treated only with an aqueous solution of acetone/dimethyl sulfoxide/Tween® 80. After 24 hours, the plants were contaminated by spraying the leaves with an aqueous suspension of Sphaerotheca fuliginea spores. The contaminated gherkin plants were incubated for 72 hours at 18° C. and at 100% relative humidity and then for 12 days at 20° C. and at 70-80% relative humidity. The test was evaluated 15 days after the inoculation. 0% means an efficacy which corresponds to that of the control plants while an efficacy of 100% means that no disease was observed.

[2] = Log P by HPLC on reversed phase columns (EEC directive 79/831 Annex V.A8); format: physicochemical; conditions: reversed phase HPLC columns; method [a]: LC-UV, acidic range, 0.1% formic acid in water and acetonitrile; compounds of formula (I)
Protocol: Log P values: Measurement of Log P values was performed according to EEC directive 79/831 Annex V.A8 by HPLC (High Performance Liquid Chromatography) on reversed phase columns with the following methods: • ^[a] Log P value is determined by measurement of LC-UV, in an acidic range, with 0.1% formic acid in water and acetonitrile as eluent (linear gradient from 10% acetonitrile to 95% acetonitrile). • ^[b] Log P value is determined by measurement of LC-UV, in a neutral range, with 0.001 molar ammonium acetate solution in water and acetonitrile as eluent (linear gradient from 10% acetonitrile to 95% acetonitrile). • ^[c] Log P value is determined by measurement of LC-UV, in an acidic range, with 0.1% phosphoric acid and acetonitrile as eluent (linear gradient from 10% acetonitrile to 95% acetonitrile). If more than one Log P value is available within the same method, all the values are given and separated by “+”. Calibration was done with straight-chain alkan2-ones (with 3 to 16 carbon atoms) with known Log P values (measurement of Log P values using retention times with linear interpolation between successive alkanones). Lambda-max-values were determined using UV-spectra from 200 nm to 400 nm and the peak values of the chromatographic signals.

Septoria tritici [3] = assay: Example F-A: in vivo preventive Septoria tritici test (wheat); conditions: Zymoseptoria tritici, 504 h, evaluated 21 days after inoculation, read-out: Efficacy in % Example F-A
Protocol: Example F: In Vivo Septoria tritici Test (Wheat); Comparison of Pyridinyloxy-Pyridyl Compounds According to the Invention Vs. Compounds Known from WO-A 2010/146116 [table] To produce a suitable preparation of active compound, 1 part by weight of active compound or active compound combination is mixed with the stated amounts of solvent and emulsifier, and the concentrate is diluted with water to the desired concentration. Example F-A: In Vivo Preventive Septoria tritici Test (Wheat) To test for preventive activity, young plants are sprayed with the preparation of active compound or active compound combination at the stated rate of application. After the spray coating has been dried, the plants are sprayed with a spore suspension of Septoria tritici. The plants remain for 48 hours in an incubation cabinet at approximately 20° C. and a relative atmospheric humidity of approximately 100% and afterwards for 60 hours at approximately 15° C. in a translucent incubation cabinet at a relative atmospheric humidity of approximately 100%. The plants are placed in the greenhouse at a temperature of approximately 15° C. and a relative atmospheric humidity of approximately 80%. The test is evaluated 21 days after the inoculation. 0% means an efficacy which corresponds to that of the untreated control, while an efficacy of 100% means that no disease is observed.

Septoria tritici [4] = assay: Example F-B: in vivo curative Septoria tritici test (wheat); conditions: Zymoseptoria tritici, 504 h, sprayed 48 hours after inoculation, evaluated 21 days after inoculation, read-out: Efficacy in % Example F-B
Protocol: Example F: In Vivo Septoria tritici Test (Wheat); Comparison of Pyridinyloxy-Pyridyl Compounds According to the Invention Vs. Compounds Known from WO-A 2010/146116 [table] To produce a suitable preparation of active compound, 1 part by weight of active compound or active compound combination is mixed with the stated amounts of solvent and emulsifier, and the concentrate is diluted with water to the desired concentration. Example F-B: In Vivo Curative Septoria tritici Test (Wheat) To test for curative activity, young plants are inoculated with a spore suspension of Septoria tritici and remain for 48 hours in an incubation cabinet at a temperature of approximately 20° C. and a relative atmospheric humidity of approximately 100%. 48 hours after the incubation, the plants are sprayed with the preparation of active compound or active compound combination at the stated rate of application. After application the plants remain for 60 hours at a temperature of approximately 15° C. in a translucent incubation cabinet at a relative atmospheric humidity of approximately 100%. Afterwards, the plants are placed in the greenhouse at a temperature of approximately 15° C. and a relative atmospheric humidity of approximately 80%. The test is evaluated 21 days after the inoculation. 0% means an efficacy which corresponds to that of the untreated control, while an efficacy of 100% means that no disease is observed.

| SMILES | chromatographic logP [2] | pest or weed control at 500 ppm (Septoria tritici [1]) | pest or weed control at 500 ppm (Sphaerotheca fuliginea) | pest or weed control at 500 ppm (Septoria tritici [3]) | pest or weed control at 500 ppm (Septoria tritici [4]) |
| --- | --- | --- | --- | --- | --- |
| CC(O)(Cn1cncn1)c1cnc(Oc2ccc(C(F)(F)F)nc2)cc1C(F)(F)F (stereo not shown) [I-04] | 2.53 | 90 to 100% | 90 to 100% | 100% | 100% |
| CC(O)(Cn1cncn1)c1cnc(Oc2ccc(Br)nc2)cc1C(F)(F)F (stereo not shown) [I-07] | 2.3 | 90 to 100% | 90 to 100% | 100% | 70% |
| CC(O)(Cn1cncn1)c1cnc(Oc2ccc(Cl)nc2)cc1C(F)(F)F (stereo not shown) [I-06, 2-[6-[(6-chloro-3-pyridyl)oxy]-4-(trifluoromethyl)-3-pyridyl]-1-(1,2,4-triazol-1-yl)propan-2-ol] | 2.18 | 90 to 100% | 90 to 100% | 100% | 100% |
| CC(O)(Cn1cncn1)c1ccc(Oc2ccc(Cl)nc2)nc1C(F)(F)F (stereo not shown) [I-05] | 2.21 | 90 to 100% | 90 to 100% | 100% | 100% |
| CC(O)(Cn1cncn1)c1ccc(Oc2ccc(Br)nc2)nc1C(F)(F)F (stereo not shown) [I-01, 2-[6-[(6-bromo-3-pyridyl)oxy]-2-(trifluoromethyl)-3-pyridyl]-1-(1,2,4-triazol-1-yl)propan-2-ol] | 2.25 | 90 to 100% | 90 to 100% | 100% | 93% |

Continued, in another order:

| chromatographic logP [2] | SMILES | pest or weed control at 500 ppm (Septoria tritici [1]) | pest or weed control at 500 ppm (Sphaerotheca fuliginea) | pest or weed control at 500 ppm (Septoria tritici [3]) | pest or weed control at 500 ppm (Septoria tritici [4]) |
| --- | --- | --- | --- | --- | --- |
| 2.2 | OC(Cn1cncn1)c1ccc(Oc2ccc(C(F)(F)F)nc2)nc1C(F)(F)F (stereo not shown) [I-09] | 90 to 100% | 90 to 100% | 100% | 86% |
| 2.56 | CC(O)(Cn1cncn1)c1ccc(Oc2ccc(C(F)(F)F)nc2)nc1C(F)(F)F (stereo not shown) [I-02, 1-(1,2,4-triazol-1-yl)-2-[2-(trifluoromethyl)-6-[[6-(trifluoromethyl)-3-pyridyl]oxy]-3-pyridyl]propan-2-ol] | 90 to 100% | 90 to 100% | 100% | 100% |
| 2.13 | OC(Cn1cncn1)c1cnc(Oc2ccc(Br)nc2)cc1C(F)(F)F (stereo not shown) [I-13] | 90 to 100% | 90 to 100% | 100% | 60% |
